How the values were obtained:
[1] = tested on: WIBR3 OCT4-ΔPE-GFP+-naïve hESCs; assay: Extended maintenance assay, OCT4-ΔPE-GFP reporter activity (imaging, qRT-PCR); type: cell-based, human; conditions: in the presence of ROCK inhibitor (Y) alone; 2.5 and 5 μM; two passages
Description: (§1) Defining alternative naïve maintenance media: To define the activity of selected hit compounds during extended naïve culture, naïve hESCs derived from the primed state and maintained in 5i/L/A were dissociated with Accutase (Thermo Fischer Scientific, A1110501) and 1.5×10^5 single cells were seeded in 5i/L/A media on MEF-coated plates. After 24 hours, 5i/L/A media were switched to experimental maintenance conditions to validate hits from the screen. After 4-6 days the cells were split in a 1:2 or 1:3 ratio and further maintained for 4-6 days before analysis by FACS, qRT-PCR, AP staining, and/or RNA-seq. 5i/L/A media in which the MEK inhibitor PD0325901 was replaced with 5 μM AZ628 are represented as alternative 5i/L/A (a5i/L/A). FXGY, AXGY, AXGYU, PXGY, and GXGY media were prepared in serum-free N2B27 media supplemented with 1 μM PD166866, 5 μM AZ628, 5 μM AZ628 and 1 μM UNC0638, 1 μM PD0325901, and 5 μM GDC-0994, respectively, together with 2 μM XAV939, 2 μM Gö6983, and 10 μM Y-27632. During these assays cells were fed with fresh media every second day and cultured in 5% O2, 5% CO2 at 37° C. Detailed information on conditions used for defining alternative naïve maintenance media can be found in Tables 1-6.
(§2) Quantitative reverse transcriptase PCR (qRT-PCR): Total RNA was isolated using the E.Z.N.A. total RNA kit I and cDNA synthesis was performed from total RNA using the high-capacity cDNA reverse transcription kit (Applied Biosystems, 4368814). qRT-PCR was performed using PowerUp SYBR Green Master Mix (Applied Biosystems, A25743) on the StepOnePlus Real-Time PCR System (Applied Biosystems). Gene expression was normalized to RPLP0 and analyzed using the ΔCt method. Error bars represent the standard deviation (SD) of the mean of technical replicates.
For this purpose, WIBR3 OCT4-ΔPE-GFP+-naïve hESCs that were generated in the absence of reprogramming transgenes were used using the 5i/L/A cocktail. […] Compounds were tested at two different concentrations (2.5 and 5 μM), and cells were maintained for two passages (FIG. 2A).

H9-naïve hESCs [2] = assay: Extended maintenance assay, flow cytometry for naïve-specific CD75 and SUSD2; type: cell-based, human; conditions: serum-free media supplemented with XGY, 2.5 μM compound
Description: as §1
Flow cytometry: Primed hESCs were single-cell dissociated using TrypLE Express, while Accutase was used for naïve hESCs. Cells were resuspended in fibroblast medium and centrifuged. Cell pellets were washed in 5 mL ice-cold PBS. The cells were then resuspended in […] fresh ice-cold FACS buffer (PBS supplemented with 5% FBS), and incubated with antibodies for 30 minutes on ice in the dark. The following antibodies were used: anti-SUSD2-PE (1:100), anti-CD75-eFluor 660 (1:100), anti-CD90-PE (1:100), anti-ITGA6-FITC (1:100) and EGFR-APC (1:25). Post-incubation the cells were washed once with 1 mL ice-cold PBS, resuspended in fresh 500 μl FACS buffer, and passed through a […] cell strainer into round bottom FACS tubes (Corning, #352235). Flow cytometry was performed using a BD LSRFortessa X-20 and the data were analyzed using the FlowJo software.

H9-naïve hESCs [3] = assay: qRT-PCR for naïve-specific transcripts (KLF17, DNMT3L) during naïve maintenance; type: cell-based, human; conditions: in XAV/Gö/Y; KLF17 and DNMT3L
Description: as §1, §2

p-ERK1/2 = conditions: stated as known; cited from earlier work

Structure (SMILES): Cn1nccc1Nc1nccc(-c2ccn([C@H](CO)c3ccc(Cl)c(F)c3)c(=O)c2)n1 [GDC-0994, (S)-1-(1-(4-chloro-3-fluorophenyl)-2-hydroxyethyl)-4-(2-((1-methyl-1H-pyrazol-5-yl)amino)pyrimidin-4-yl)pyridin-2(1H)-one]
- activity in maintaining OCT4-ΔPE-GFP reporter activity after passaging [1]: showed activity
- sustaining CD75/SUSD2-positive cells over multiple passages (H9-naïve hESCs [2]): robustly sustained
- concentration effective to maintain expression of naïve-specific transcripts (titration) (H9-naïve hESCs [3]): 5 µM
- effect on phosphorylation of cellular ERK1/2 (p-ERK1/2): not to alter

Source: US20250382583A1, “ENHANCED METHODS FOR INDUCING AND MAINTAINING NAIVE HUMAN PLURIPOTENT STEM CELLS” (Washington University, priority 2021, published 2025)
